US20150065443A1, “EMBELIN-BASED DELIVERY SYSTEM FOR WATER-INSOLUBLE ACTIVE AGENTS” (priority 2012, published 2015)

Test system: MDA-MB-231 cells
Assay: In vitro cytotoxicity, MTT assay
Details: various concentrations of PTX, 72 h

`CC(=O)O[C@H]1C(=O)[C@@]2(C)[C@H]([C@H](OC(=O)c3ccccc3)[C@]3(O)C[C@H](OC(=O)[C@H](O)[C@@H](NC(=O)c4ccccc4)c4ccccc4)C(C)=C1C3(C)C)[C@]1(OC(C)=O)CO[C@@H]1C[C@@H]2O` [PTX, Paclitaxel] was tested, and the Cytotoxicity was “exhibited cytotoxicity on MDA-MB-231 cells in a dose-dependent manner”.
